Results on 7 compounds are retold here after patent publication US20220251114A1, “AZEPINES AS HBV CAPSID ASSEMBLY MODULATORS” (Janssen Sciences Ireland Unlimited Company, priority 2019, published 2022).

The assay deals with HBV. Nature of the assay: HBV replication inhibition assay (BDNA assay) in HepG2.2.15 cells. Type of assay: cell-based. The following applies: Hepatitis B virus, 144 h, 6 days treatment, encapsidated HBV DNA in supernatant by branched DNA QuantiGene assay. On the procedure:
HBV replication inhibition by the disclosed compounds were determined in cells infected or transfected with HBV or cells with stably integrated HBV, such as HepG2.2.15 cells (Sells et al. 1987). In this example, HepG2.2.15 cells were maintained in cell culture medium containing 10% fetal bovine serum (FBS), Geneticin, L-glutamine, penicillin and streptomycin. HepG2.2.15 cells were seeded in 96-well plates at a density of 40,000 cells/well and were treated with serially diluted compounds at a final DMSO concentration of 0.5% either alone or in combination by adding drugs in a checker box format. Cells were incubated with compounds for three days, after which medium was removed and fresh medium containing compounds was added to cells and incubated for another three days. At day 6, supernatant was removed and treated with DNase at 37° C. for 60 minutes, followed by enzyme inactivation at 75° C. for 15 minutes. Encapsidated HBV DNA was released from the virions and covalently linked HBV polymerase by incubating in lysis buffer (Affymetrix QS0010) containing 2.5 μg proteinase K at 50° C. for 40 minutes. HBV DNA was denatured by addition of 0.2 M NaOH and detected using a branched DNA (BDNA) QuantiGene assay kit according to manufacturer recommendation (Affymetrix). HBV DNA levels were also quantified using qPCR, based on amplification of encapsidated HBV DNA extraction with QuickExtraction Solution (Epicentre Biotechnologies) and amplification of HBV DNA using HBV specific PCR probes that can hybridize to HBV DNA and a fluorescently labeled probe for quantitation. In addition, cell viability of HepG2.2.15 cells incubated with test compounds alone or in combination was determined by using CellTitre-Glo reagent according to the manufacturer protocol (Promega). The mean background signal from wells containing only culture medium was subtracted from all other samples, and percent inhibition at each compound concentration was calculated by normalizing to signals from HepG2.2.15 cells treated with 0.5% DMSO using equation El.
E1: % inhibition=(DMSOave−Xi)/DMSOave×100%
where DMSOave is the mean signal calculated from the wells that were treated with DMSO control (0% inhibition control) and Xi is the signal measured from the individual wells. EC50 values, effective concentrations that achieved 50% inhibitory effect, were determined by non-linear fitting using Graphpad Prism software (San Diego, Calif.) and equation E2.
E2: Y=Ymin+(Ymax−Ymin)/(1+10(Log EC50-X)×HillSlope)
where Y represents percent inhibition values and X represents the logarithm of compound concentrations.
Selected disclosed compounds were assayed in the HBV replication assay (BDNA assay), as described above, and a representative group of these active compounds is shown in Table 3.

Take `N#Cc1cc(NC(=O)N2CCc3nn4c(c3C2)SCC(O)CC4)ccc1F` (stereo not shown) [Example 3, N-(3-Cyano-4-fluorophenyl)-3-hydroxy-2,3,4,5,8,9-hexahydropyrido[4′,3′:3,4]-pyrazolo[5,1-b][1,3]thiazepine-10(11H)-carboxamide]: the EC50 is 5 nM.
Under `N#Cc1cc(NC(=O)N2CCc3nn4c(c3C2)S(=O)(=O)CCC(O)C4)ccc1F` (stereo not shown) [Example 5, N-(3-Cyano-4-fluorophenyl)-4-hydroxy-2,3,4,5,8,9-hexahydropyrido[4′,3′:3,4]-pyrazolo[5,1-b][1,3]thiazepine-10(11H)-carboxamide 1,1-dioxide] stands 40 nM.
With `N#Cc1cc(NC(=O)N2CCc3nn4c(c3C2)OCC=C(CO)C4)ccc1F` [Example 1, N-(3-Cyano-4-fluorophenyl)-4-(hydroxymethyl)-5,8,9,11-tetrahydropyrido-[4′,3′:3,4]pyrazolo[5,1-b] [1,3] oxazepine-10(2H)-carboxamide], the EC50 is 18 nM.
For `N#Cc1cc(NC(=O)N2CCc3nn4c(c3C2)[S+]([O-])CC(O)CC4)ccc1F` (stereo not shown) [Example 6, N-(3-Cyano-4-fluorophenyl)-3-hydroxy-2,3,4,5,8,9-hexahydropyrido[4′,3′:3,4]-pyrazolo[5,1-b][1,3]thiazepine-10(11H)-carboxamide 1-oxide], the EC50 is 141 nM.
`N#Cc1cc(NC(=O)N2CCc3nn4c(c3C2)SCCC(O)C4)ccc1F` (stereo not shown) [Example 2, N-(3-Cyano-4-fluorophenyl)-4-hydroxy-2,3,4,5,8,9-hexahydropyrido[4′,3′:3,4]-byrazolo[5,1-b][1,3]thiazepine-10(11H)-carboxamide]: the EC50 was 15 nM.
Turning to `N#Cc1cc(NC(=O)N2CCc3nn4c(c3C2)S(=O)(=O)CC(O)CC4)ccc1F` (stereo not shown) [Example 7, N-(3-Cyano-4-fluorophenyl)-3-hydroxy-2,3,4,5,8,9-hexahydropyrido[4′,3′:3,4]-pyrazolo[5,1-b][1,3]thiazepine-10(11H)-carboxamide 1,1-dioxide], the EC50 was 3.5 nM.
Under `N#Cc1cc(NC(=O)N2CCc3nn4c(c3C2)[S+]([O-])CCC(O)C4)ccc1F` (stereo not shown) [Example 4, N-(3-Cyano-4-fluorophenyl)-4-hydroxy-2,3,4,5,8,9-hexahydropyrido[4′,3′:3,4]-pyrazolo[5,1-b][1,3]thiazepine-10(11H)-carboxamide 1-oxide] stands 834 nM.
